The target of one test is T1, CDK3/Cyclin E complex (Homo sapiens, UniProt Q00526).
T1 construct: purchased Upstate Inc. 14-487
The test is described as follows: In vitro kinase assay, CDK3/Cyclin E complex. It counts as biochemical. The conditions noted are these: recombinant protein (Upstate); read-out: CDK3/cyclinE IC50. As to the method: (§1) Inhibitory activity against Aurora A, CDK1/Cyclin B complex, CDK2/Cyclin E complex and CDK3/Cyclin E complex were measured by in vitro kinase assay using recombinant proteins.

Test [1] deals with colon carcinoma cell line SW620. The test is described as follows: Cell proliferation inhibitory activity, SW620. It counts as cell-based, human. The following applies: cells counted 4 days later with Cell Counting Kit-8. The protocol:
(§2) Evaluations were carried out using colon carcinoma cell line SW620 (Cat. No. CCL-227), lung carcinoma cell line NCI-H460 (Cat. No. HTB-177), prostate cancer cell line DU 145 (Cat. No. HTB-81), breast cancer cell line MDA-MB-231 (Cat. No. HTB26) and leukemia cell line KG-1a (Cat. No. CCL-246.1) purchased from ATCC, pancreatic cancer cell line MIAPaCa-2 (Cat. No. CRL-1420) purchased from Dainippon Pharmaceutical, and ovarian cancer cell line IGROV1 received from the Netherland Cancer Institute. The cells were cultured under the conditions recommended by the supplier for each cell line, or with respect to IGROV1, according to the method described in Cancer Res. 59: 4559-4563, 1999. Cells suspended in media were added to solutions containing the test substances at various concentrations followed by culturing in a 5% CO2 incubator at 37° C. The numbers of cells were counted 4 days later with the Cell Counting Kit-8. IC50 values were calculated by assigning measured values in the case of not containing a test substance to an inhibition of 0%, and assigning measured values in the case of not containing a test substance or cells to an inhibition of 100%.
For orientation: Tetrazolium dyes change colour on reduction, which living cells bring about.

Test [2] deals with prostate cancer cell line DU 145. The test is described as follows: Cell proliferation inhibitory activity, DU 145. The class given is cell-based, human. The following applies: cells counted 4 days later with Cell Counting Kit-8. As to the method: as §2
Another test has as its target CDK2/Cyclin E complex (Homo sapiens, UniProt P24941). The test is described as follows: In vitro kinase assay, CDK2/Cyclin E complex. It counts as biochemical. The conditions noted are these: recombinant protein (Upstate); read-out: CDK2/cyclinE IC50. The protocol: as §1
The next test deals with leukemia cell line KG-1a. The experiment in a line: Cell proliferation inhibitory activity, KG-1a. It counts as cell-based. The conditions noted are these: Homo sapiens, 96 h, cells counted 4 days later with Cell Counting Kit-8. The protocol: as §2
The target of a further test is T2, CDK1/Cyclin B complex (Homo sapiens, UniProt P06493).
T2 construct: purchased Upstate Inc. 14-450
T2 sequence (P06493 whole entry): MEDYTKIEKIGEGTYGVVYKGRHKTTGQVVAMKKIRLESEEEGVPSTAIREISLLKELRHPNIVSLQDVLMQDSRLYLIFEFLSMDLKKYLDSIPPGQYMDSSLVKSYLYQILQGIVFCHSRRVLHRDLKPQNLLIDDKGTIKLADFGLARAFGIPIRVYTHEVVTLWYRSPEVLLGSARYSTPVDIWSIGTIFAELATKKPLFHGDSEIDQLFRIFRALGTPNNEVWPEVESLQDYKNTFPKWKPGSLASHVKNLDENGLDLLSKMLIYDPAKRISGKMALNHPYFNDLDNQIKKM
T2 sequence (P14635 whole entry partner): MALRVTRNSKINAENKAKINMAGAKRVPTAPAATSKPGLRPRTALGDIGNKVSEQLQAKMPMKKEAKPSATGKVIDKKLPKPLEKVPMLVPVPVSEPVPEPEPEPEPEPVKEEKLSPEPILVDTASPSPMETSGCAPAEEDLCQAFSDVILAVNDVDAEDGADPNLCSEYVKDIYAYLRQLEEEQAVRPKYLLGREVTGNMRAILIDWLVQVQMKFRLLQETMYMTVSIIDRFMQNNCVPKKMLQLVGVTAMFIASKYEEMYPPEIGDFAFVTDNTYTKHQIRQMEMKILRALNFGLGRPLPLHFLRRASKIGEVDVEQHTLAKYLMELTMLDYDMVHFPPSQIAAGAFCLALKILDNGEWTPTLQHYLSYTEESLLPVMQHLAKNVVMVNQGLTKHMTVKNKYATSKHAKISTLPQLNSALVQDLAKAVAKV
The test is described as follows: In vitro kinase assay, CDK1/Cyclin B complex. It counts as biochemical. The following applies: recombinant protein (Upstate). The protocol: (§3) Inhibitory activity against Aurora A, CDK1/Cyclin B complex, CDK2/Cyclin E complex and CDK3/Cyclin E complex were measured by in vitro kinase assay using recombinant proteins. The assays were carried out by using recombinant proteins (Upstate Inc.) for Aurora A, CDK1/Cyclin B complex, CDK2/Cyclin E complex and CDK3/Cyclin E complex (respective cat. nos. 14-511, 14-450, 14-448 and 14-487), in accordance with the procedure described in the product instructions thereof. The 50% inhibitory concentrations (IC50 values) were calculated by assigning measured values in the case of not containing a test compound to an inhibition of 0%, and assigning measured values in the case of not containing a test compound and enzyme to an inhibition of 100%.

The target in another test is T3, Aurora A (Homo sapiens, UniProt O14965).
T3 construct: purchased Upstate Inc. 14-511
T3 sequence (O14965 1-403): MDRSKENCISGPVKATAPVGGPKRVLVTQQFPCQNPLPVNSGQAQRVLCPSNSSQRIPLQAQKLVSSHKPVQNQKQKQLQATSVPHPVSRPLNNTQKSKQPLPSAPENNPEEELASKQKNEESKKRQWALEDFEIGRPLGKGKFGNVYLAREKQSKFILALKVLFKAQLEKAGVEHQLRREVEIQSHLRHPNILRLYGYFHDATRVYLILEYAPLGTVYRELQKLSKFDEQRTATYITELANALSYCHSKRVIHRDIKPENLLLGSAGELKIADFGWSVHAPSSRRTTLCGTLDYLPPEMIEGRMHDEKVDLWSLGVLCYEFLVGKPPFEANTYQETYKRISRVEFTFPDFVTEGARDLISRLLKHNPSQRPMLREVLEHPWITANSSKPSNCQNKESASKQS
The test is described as follows: In vitro kinase assay, Aurora A. It counts as biochemical. The conditions noted are these: recombinant protein (Upstate). The protocol:
as §3

For test [3], the system named is lung carcinoma cell line NCI-H460. The experiment in a line: Cell proliferation inhibitory activity, NCI-H460. The following applies: Homo sapiens, 96 h, cells counted 4 days later with Cell Counting Kit-8. The class given is cell-based. As to the method: as §2

T1 sequence (Q00526 whole entry): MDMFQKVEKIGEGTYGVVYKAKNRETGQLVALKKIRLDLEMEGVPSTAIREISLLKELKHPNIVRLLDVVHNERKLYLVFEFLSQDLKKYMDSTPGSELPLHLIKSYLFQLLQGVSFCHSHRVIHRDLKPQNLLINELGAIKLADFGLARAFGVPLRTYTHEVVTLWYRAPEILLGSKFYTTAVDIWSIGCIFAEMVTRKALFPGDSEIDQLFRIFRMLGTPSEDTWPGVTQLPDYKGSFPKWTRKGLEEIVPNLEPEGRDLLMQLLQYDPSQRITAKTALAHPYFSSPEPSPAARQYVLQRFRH
T1 sequence (P24864 whole entry partner): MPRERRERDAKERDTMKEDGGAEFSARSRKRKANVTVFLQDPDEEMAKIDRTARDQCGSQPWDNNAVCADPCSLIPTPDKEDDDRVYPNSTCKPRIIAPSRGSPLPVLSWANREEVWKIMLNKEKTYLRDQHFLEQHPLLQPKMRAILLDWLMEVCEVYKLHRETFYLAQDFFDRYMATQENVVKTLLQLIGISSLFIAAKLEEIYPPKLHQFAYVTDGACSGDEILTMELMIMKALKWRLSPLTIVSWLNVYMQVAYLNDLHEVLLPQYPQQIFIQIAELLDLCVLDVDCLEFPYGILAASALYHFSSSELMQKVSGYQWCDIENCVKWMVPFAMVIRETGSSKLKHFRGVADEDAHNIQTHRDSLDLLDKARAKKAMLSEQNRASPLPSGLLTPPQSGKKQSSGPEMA

Consider `CC(C)(Nc1ccc(Cl)c(NC(=O)C2CC2)c1)C(=O)Nc1nc2c(C(F)(F)F)cc3[nH]ncc3c2s1` [compound 80], for which the IC50 on CDK3/Cyclin E complex was found to be 165 nM; in test [1] (Homo sapiens, SW-620, 96 h), 2300 nM; in test [2] (Homo sapiens, 96 h) it was 4100 nM; at CDK2/Cyclin E complex, 154 nM.

As to `CC(C)(Nc1ccc(Cl)c(NC(=O)OCCO)c1)C(=O)Nc1nc2c(C(F)(F)F)cc3[nH]ncc3c2s1` [compound 89], the IC50 was found to be 105 nM on CDK3/Cyclin E complex; 2200 nM in test [1] (Homo sapiens, SW-620, 96 h); 4500 nM in test [2] (Homo sapiens, 96 h); 225 nM at CDK2/Cyclin E complex.

Turning to `CC(C)(Nc1ccc(F)cc1)C(=O)Nc1nc2c(C(F)(F)F)cc3[nH]ncc3c2s1` [compound 74], the IC50 at CDK3/Cyclin E complex is 163 nM; in test [1] (Homo sapiens, SW-620, 96 h), 2700 nM; in test [2] (Homo sapiens, 96 h) it was 3900 nM; on CDK2/Cyclin E complex it was 302 nM.

As to `O=C(CNc1ccc(Cl)cc1)Nc1nc2ccc3[nH]ncc3c2s1` [compound 9], the IC50 at CDK3/Cyclin E complex is 81 nM; with leukemia cell line KG-1a it was under 100 nM; at CDK1/Cyclin B complex it was 372 nM; on CDK2/Cyclin E complex, 40 nM.

On to `CC(C)(Nc1ccc(Cl)c(C(=O)NCCCS(N)(=O)=O)c1)C(=O)Nc1nc2c(C(F)(F)F)cc3[nH]ncc3c2s1` [compound 102], for which the IC50 on CDK3/Cyclin E complex was 30 nM; on Aurora A it was 39 nM; on CDK1/Cyclin B complex, 105 nM; at CDK2/Cyclin E complex, 76 nM.

Take `CC(C)(Nc1cccc(C(=O)NCC(=O)OCCO)c1)C(=O)Nc1nc2c(C(F)(F)F)cc3[nH]ncc3c2s1` [compound 86]: the IC50 stood at 85 nM at CDK3/Cyclin E complex, 66 nM on Aurora A, 483 nM on CDK1/Cyclin B complex and 274 nM at CDK2/Cyclin E complex.

Take `CCOC(=O)c1cc(NC(C)(C)C(=O)Nc2nc3ccc4[nH]ncc4c3s2)ccc1Cl` [compound 44]: the IC50 at CDK3/Cyclin E complex is 157 nM; at Aurora A it was 107 nM; in the test on leukemia cell line KG-1a, under 100 nM; in test [2] (Homo sapiens, 96 h), 4500 nM; at CDK2/Cyclin E complex, 160 nM.

Take `CC(C)(Nc1cccc(NS(C)(=O)=O)c1)C(=O)Nc1nc2c(C(F)(F)F)cc3[nH]ncc3c2s1` [compound 79]: the IC50 came to 266 nM on CDK3/Cyclin E complex; 2400 nM in test [1] (Homo sapiens, SW-620, 96 h); 3100 nM in test [2] (Homo sapiens, 96 h); 171 nM on CDK2/Cyclin E complex.

With `CC(C)(Nc1cccc(C(=O)NCCCC(=O)O)c1)C(=O)Nc1nc2c(C(F)(F)F)cc3[nH]ncc3c2s1` [compound 140], the IC50 turned out to be 160 nM on CDK3/Cyclin E complex, 247 nM on Aurora A, 446 nM at CDK1/Cyclin B complex and 428 nM on CDK2/Cyclin E complex.

As for `CC(C)(Nc1ccc(Cl)c(C(=O)O)c1)C(=O)Nc1nc2c(C(F)(F)F)cc3[nH]ncc3c2s1` [compound 136], the IC50 was 99 nM on CDK3/Cyclin E complex, 19 nM at Aurora A, 446 nM on CDK1/Cyclin B complex and 295 nM at CDK2/Cyclin E complex.

As to `CC(C)(Nc1ccc(Cl)cc1)C(=O)Nc1nc2c(C(F)(F)F)cc3[nH]ncc3c2s1` [compound 59], the figures for the IC50 in test [1] and in test [2] were 2200 nM and 4200 nM, respectively.

Consider `CC(C)(Nc1ccc(F)c(F)c1)C(=O)Nc1nc2c(C(F)(F)F)cc3[nH]ncc3c2s1` [compound 72], for which the IC50 was 180 nM at CDK3/Cyclin E complex; 2400 nM in test [1] (Homo sapiens, SW-620, 96 h); 3500 nM in test [2] (Homo sapiens, 96 h); 335 nM on CDK2/Cyclin E complex.

Regarding `CC(C)(Nc1cccc(C(=O)NCCC(N)=O)c1)C(=O)Nc1nc2c(C(F)(F)F)cc3[nH]ncc3c2s1` [compound 101], the IC50 on CDK3/Cyclin E complex came out at 21 nM; in test [1] (Homo sapiens, SW-620, 96 h) it was 2000 nM; at Aurora A, 118 nM; on CDK1/Cyclin B complex, 39 nM; in test [2] (Homo sapiens, 96 h), 4400 nM; on CDK2/Cyclin E complex it was 30 nM.

Consider `CC(C)CC(Nc1cccc(O)c1)C(=O)Nc1nc2ccc3[nH]ncc3c2s1` (stereo not shown) [compound 25], for which the IC50 was 448 nM on CDK3/Cyclin E complex; 1600 nM in test [1] (Homo sapiens, SW-620, 96 h); 137 nM on Aurora A; 3200 nM in test [3]; under 100 nM in the test on leukemia cell line KG-1a; 366 nM on CDK2/Cyclin E complex.

As for `CC(C)(Nc1ccc(Cl)nc1)C(=O)Nc1nc2c(C(F)(F)F)cc3[nH]ncc3c2s1` [compound 96], the IC50 was 277 nM at CDK3/Cyclin E complex; 2300 nM in test [1] (Homo sapiens, SW-620, 96 h); 3900 nM in test [3]; 3600 nM in test [2] (Homo sapiens, 96 h); 347 nM on CDK2/Cyclin E complex.
